One block for each compound: values may come before it.
Biological target: T1, human orexin type 2 receptor (hOX2R) (Homo sapiens, UniProt O43614)
T1 construct: expressed in transfected cells
T1 sequence (O43614 1-444): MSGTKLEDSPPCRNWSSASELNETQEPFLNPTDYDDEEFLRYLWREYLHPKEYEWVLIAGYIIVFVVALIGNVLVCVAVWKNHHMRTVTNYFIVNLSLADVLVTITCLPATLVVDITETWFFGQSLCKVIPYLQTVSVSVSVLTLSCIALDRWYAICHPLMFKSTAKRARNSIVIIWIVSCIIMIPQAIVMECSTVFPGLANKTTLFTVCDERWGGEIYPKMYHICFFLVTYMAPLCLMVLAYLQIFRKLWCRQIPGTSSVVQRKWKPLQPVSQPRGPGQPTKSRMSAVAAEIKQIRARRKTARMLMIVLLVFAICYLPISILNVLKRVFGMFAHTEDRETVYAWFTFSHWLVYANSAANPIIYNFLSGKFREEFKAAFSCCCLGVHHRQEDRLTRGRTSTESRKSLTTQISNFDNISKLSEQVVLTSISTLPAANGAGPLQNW
Assay: Orexin type 2 receptor agonist activity, intracellular Ca2+ (FLIPR TETRA)
Format: cell-based
Conditions: CHO cells expressing hOX2R, Ca2+ fluorescence area; for EC50: read-out: hOx2 pEC50 (converted)
Experimental: Stable cell line generation. Obtainment of cells stably expressing either human orexin type 2 or human orexin type 1 receptor; to obtain a stable cell line the Orexin receptor cDNA was inserted into pcDNA3.1(+) plasmid vector and clones identified by G418 drug resistance selection. […] A single clone for OX2R-CHO and OX1R-CHO were grown in bulk and frozen to generate a cell bank for routine screening.
Measurement of orexin type 2 receptor agonist activity. Chinese hamster ovary (CHO) cells expressing human orexin type 2 receptor (hOX2R) or human orexin type 1 receptor (hOX1R) were seeded in each well of 384 well black clear bottom plates (BD Flacon) at 10,000 cells per well and cultured for 24 hr in an Ham's F12 (Gibco) medium containing 10% fetal calf serum (Sigma Aldrich) under the conditions of 37° C., 5% CO2. After removal of the medium, 50 μl of assay buffer 1 (0.1% bovine serum albumin (Sigma Aldrich), 20 mM HEPES (Molecular Dimensions), […] probenecid (Sigma Aldrich), 1× Calcium 5 dye (Molecular Devices) in Hank's balanced salt solution (Invitrogen)) was added, and the cells were incubated for 60 min under the conditions of 37° C., 5% CO2. A test compound was dissolved in dimethyl sulfoxide (Sigma Aldrich) to 10 mM, and then diluted with assay buffer 2 (20 mM HEPES, Hank's balanced salt solution, 0.1% bovine serum albumin). For the reaction, a test compound solution (10 μl) was added using Fluorescent Imaging Plate Reader TETRA (FLIPR TETRA: manufactured by Molecular Devices), a fluorescence value (excitation wavelength 488 nm, measurement wavelength 570 nm) of each well was measured every one second for 2 min, and the agonist activity was determined using the area of the fluorescence value as an indicator of intracellular Ca^2+ concentration. The agonist activity of the test compound was calculated assuming that the fluorescence value of the well added with only the dilution buffer was 0% and the fluorescence value of the well added with 10 nM human orexin A (Tocris) buffer was 100%. As used herein, Emax indicates the value at 10 μM concentration when orexin A is converted to a full agonist (maximum value of agonist activity: 100%).

Structure (SMILES): CCS(=O)(=O)N[C@H]1CCN2C(=O)NCCCCCc3ccccc3-c3cccc(c3)C[C@@H]12 (single isomer, unassigned) [Compound A1-42, N-((4^2S,4^3S)-5-oxo-6-aza-4(2,1)-pyrrolidina-1(1,2),2(1,3)-dibenzenacycloundecaphane-4^3-yl)ethanesulfonamide]
EC50: 0.1 to 1 nM

Structure (SMILES): CCS(=O)(=O)N[C@@H]1CCN2C(=O)NCCCCCc3ccccc3-c3cccc(c3)C[C@H]12 (single isomer, unassigned) [Compound A1-43, N-((4^2R,4^3R)-5-oxo-6-aza-4(2,1)-pyrrolidina-1(1,2),2(1,3)-dibenzenacycloundecaphane-4^3-yl)ethanesulfonamide]
EC50: 100 to 1000 nM

Structure (SMILES): CS(=O)(=O)N[C@@H]1CCCN2C(=O)NCCOc3ccccc3-c3cccc(c3)C[C@H]12 [Compound A1-3, N-((4^2R,4^3R)-5-oxo-9-oxa-6-aza-4(2,1)-piperidina-1(1,2),2(1,3)-dibenzenacyclo-nonaphane-4^3-yl)methanesulfonamide]
EC50: 1 to 10 nM

Structure (SMILES): CCS(=O)(=O)NC1CCN2C(=O)OCCOc3ccccc3-c3cccc(c3)CC12 (stereo not shown) [Compound A1-22, N-(5-oxo-6,9-dioxa-4(2,1)-pyrrolidina-1(1,2),2(1.3)-dibenzenacyclo-nonaphane-4^3-yl)ethanesulfonamide]
hOx2 pEC50: ++ (7.0≤“++”<8.0)

Structure (SMILES): CCS(=O)(=O)NC1CCN2C(=O)NCCCCCOc3ccccc3-c3cccc(c3)CC12 (stereo not shown) [Compound A1-23, N-(5-oxo-12-oxa-6-aza-4(2,1)-pyrrolidina-1(1,2),2(1,3)-dibenzenacyclo-dodecaphane-43-yl)ethanesulfonamide]
hOx2 pEC50: + (6.0≤“+”<7.0)

Structure (SMILES): CS(=O)(=O)NC1CCCN2C(=O)CCCc3ccccc3-c3cccc(c3)CC12 (stereo not shown) [Compound A1-59]
EC50: 10 to 100 nM

Structure (SMILES): CS(=O)(=O)N[C@H]1CCCN2C(=O)OCCOc3ccccc3-c3cccc(c3)C[C@@H]12 [Compound A1-60]
EC50: 10 to 100 nM

Structure (SMILES): CS(=O)(=O)NC1CCCN2C(=O)OCCOc3ccccc3-c3cccc(c3)CC12 (stereo not shown) [Compound A1-63]
EC50: 10 to 100 nM

Structure (SMILES): CS(=O)(=O)N[C@H]1CCCN2C(=O)CCCOc3ccccc3-c3cccc(c3)C[C@@H]12 [Compound A1-64]
EC50: 10 to 100 nM

Structure (SMILES): CS(=O)(=O)N[C@H]1CCN2C(=O)C(F)(F)CCCCCc3ccccc3-c3cccc(c3)C[C@@H]12 [Compound A1-66]
EC50: 10 to 100 nM

Structure (SMILES): CS(=O)(=O)N[C@H]1CCCN2C(=O)CCCc3ccccc3-c3cccc(c3)C[C@@H]12 [Compound A1-67]
EC50: 10 to 100 nM

Structure (SMILES): CS(=O)(=O)N[C@H]1CCCN2C(=O)CCOc3ccccc3-c3cccc(c3)C[C@@H]12 [Compound A1-68]
EC50: 10 to 100 nM

Structure (SMILES): CN(C)S(=O)(=O)N[C@@H]1CCCN2C(=O)CCOc3ccccc3-c3cccc(c3)C[C@H]12 [Compound A1-75]
EC50: 10 to 100 nM

Structure (SMILES): CN(C)S(=O)(=O)N[C@H]1CCCN2C(=O)CCOc3ccccc3-c3cccc(c3)C[C@@H]12 [Compound A1-76, N-((4^2S,4^3S)-5-oxo-8-oxa-4(2,1)-piperidina-1(1,2),2(1,3)-dibenzenacyclooctaphane-4^3-yl)-N,N-dimethylsulfuric diamide]
EC50: 1 to 10 nM

Structure (SMILES): CN(C)S(=O)(=O)N[C@H]1CCCN2C(=O)OCCOc3ccccc3-c3cccc(c3)C[C@@H]12 [Compound A1-77]
EC50: 10 to 100 nM

Structure (SMILES): CS(=O)(=O)N[C@H]1CCCN2C(=O)CCOc3ccccc3-c3cccc(c3)C[C@@H]12 [Compound A1-78, N-((4^2S,4^3S)-5-oxo-8-oxa-4(2,1)-piperidina-1(1,2),2(1,3)-dibenzenacyclo-octaphane-4^3-yl)methanesulfonamide]
EC50: 1 to 10 nM

Structure (SMILES): CN(C)S(=O)(=O)N[C@H]1CCCN2C(=O)CCCc3ccccc3-c3cccc(c3)C[C@@H]12 [Compound A1-79]
EC50: 1 to 10 nM

Structure (SMILES): O=C1CCOc2ccccc2-c2cccc(c2)C[C@H]2[C@@H](NS(=O)(=O)C3CC3)CCCN12 [Compound A1-84]
EC50: 0.1 to 1 nM

Structure (SMILES): O=C1CCOc2c(F)cccc2-c2cccc(c2)C[C@H]2[C@@H](NS(=O)(=O)CF)CCCN12 [Compound A1-90, 1-fluoro-N-((4^2S,4^3S)-13-fluoro-5-oxo-8-oxa-4(2,1)-piperidina-1(1,2),2(1,3)-dibenzenacyclooctaphane-4^3-yl)methanesulfonamide]
EC50: 0.1 to 1 nM

Second part, the compound after the results:

EC50: 100 to 1000 nM
Structure (SMILES): CS(=O)(=O)N[C@H]1CCCN2C(=O)NCCOc3ccccc3-c3cccc(c3)C[C@@H]12 [Compound A1-4, N-((4^2S,4^3S)-5-oxo-9-oxa-6-aza-4(2,1)-piperidina-1(1,2),2(1,3)-dibenzenacyclo-nonaphane-4^3-yl)methanesulfonamide]

EC50: 10 to 100 nM
Structure (SMILES): CCS(=O)(=O)N[C@H]1CCN2C(=O)NCCOc3ccccc3-c3cccc(c3)C[C@@H]12 [Compound A1-7, N-((4^2S,4^3S)-5-oxo-9-oxa-6-aza-4(2,1)-pyrrolidina-1-(1,2),2-(1,3)-dibenzenacyclo-nonaphane-4′-yl)ethanesulfonamide]

EC50: 0.1 to 1 nM
Structure (SMILES): CCS(=O)(=O)N[C@H]1CCN2C(=O)N(C)CCCCCc3ccccc3-c3cccc(c3)C[C@@H]12 [Compound A1-10, N-((4^2S,4^3S)-6-methyl-5-oxo-6-aza-4(2,1)-pyrrolidina-1(1,2),2(1,3)-dibenzena-cycloundecaphane-4^3-yl)ethanesulfonamide]

EC50: 10 to 100 nM
Structure (SMILES): CN1CCOc2ccccc2-c2cccc(c2)C[C@H]2[C@@H](NS(C)(=O)=O)CCN2C1=O [Compound A1-61]

EC50: 10 to 100 nM
Structure (SMILES): CCS(=O)(=O)NC1CCN2C(=O)N3CC[C@H]3COc3ccccc3-c3cccc(c3)CC12 (stereo partly shown) [Compound A1-65]

EC50: 10 to 100 nM
Structure (SMILES): CCS(=O)(=O)N[C@H]1CCN2C(=O)N(C)CCOc3ccccc3-c3cccc(c3)C[C@@H]12 [Compound A1-71]

EC50: 1 to 10 nM
Structure (SMILES): CCS(=O)(=O)N[C@H]1CCCN2C(=O)CCOc3ccccc3-c3cccc(c3)C[C@@H]12 [Compound A1-72]

EC50: 1 to 10 nM
Structure (SMILES): CS(=O)(=O)N[C@H]1CCCN2C(=O)NCCOc3ccccc3-c3cccc(c3F)C[C@@H]12 [Compound A1-73]

EC50: 10 to 100 nM
Structure (SMILES): CCS(=O)(=O)N[C@H]1CCCN2C(=O)CCOc3ccccc3-c3cccc(c3)C[C@@H]12 [Compound A1-74, N-((4^2,4^3S)-5-oxo-8-oxa-4(2,1)-piperidina-1(1,2),2(1.3)-dibenzenacyclo-octaphane-4^3-yl)ethanesulfonamide]

EC50: 1 to 10 nM
Structure (SMILES): O=C1CCOc2ccccc2-c2cccc(c2)C[C@H]2[C@@H](NS(=O)(=O)CF)CCCN12 [Compound A1-80]

EC50: 1 to 10 nM
Structure (SMILES): CN1CCOc2ccccc2-c2cccc(c2)C[C@H]2[C@@H](NS(=O)(=O)N(C)C)[C@@H](F)CN2C1=O [Compound A1-81]

EC50: 1 to 10 nM
Structure (SMILES): CS(=O)(=O)N[C@H]1CCCN2C(=O)CCOc3ccccc3-c3cccc(c3F)C[C@@H]12 [Compound A1-82, N-((4^2S,4^3S)-22-fluoro-5-oxo-8-oxa-4(2.1)-piperidina-1(1,2),2(1.3)-dibenzenacyclooctaphane-4^3-yl)methanesulfonamide]

EC50: 1 to 10 nM
Structure (SMILES): COc1c2cccc1-c1ccccc1OCCC(=O)N1CCC[C@H](NS(C)(=O)=O)[C@@H]1C2 [Compound A1-83]

EC50: 10 to 100 nM
Structure (SMILES): C[C@H]1COc2ccccc2-c2cccc(c2)C[C@H]2[C@@H](NS(C)(=O)=O)CCCN2C1=O [Compound A1-85]

EC50: 1 to 10 nM
Structure (SMILES): COc1c2cccc1-c1ccccc1OCCN(C)C(=O)N1C[C@H](F)[C@H](NS(=O)(=O)CF)[C@@H]1C2 [Compound A1-86]

EC50: 1 to 10 nM
Structure (SMILES): O=C1CCOc2ccccc2-c2cc(ccc2F)C[C@H]2[C@@H](NS(=O)(=O)CF)CCCN12 [Compound A1-87, 1-fluoro-N-((4^2S,4^3S)-26-fluoro-5-oxo-8-oxa-4(2,1)-piperidina-1(1,2),2(1,3)-dibenzenacyclooctaphane-4^3-yl)methanesulfonamide]

EC50: 10 to 100 nM
Structure (SMILES): COc1c2cccc1-c1ccccc1OCCNC(=O)N1C[C@H](F)[C@H](NS(=O)(=O)CF)[C@@H]1C2 [Compound A1-88]

EC50: 10 to 100 nM
Structure (SMILES): O=C1CCOc2cccc(F)c2-c2cccc(c2)C[C@H]2[C@@H](NS(=O)(=O)CF)CCCN12 [Compound A1-89, 1-fluoro-N-((4^2S,4^3S)-16-fluoro-5-oxo-8-oxa-4(2,1)-piperidina-1(1,2),2(1,3)-dibenzenacyclooctaphane-4^3-yl)methanesulfonamide]

— patent publication US20230331720A1, “MEDIUM- OR MACRO-CYCLIC BENZYL-SUBSTITUTED HETEROCYCLE DERIVATIVES AND THEIR USES AS OREXIN-2 RECEPTOR AGONISTS” (Orexia Therapeutics Limited, priority 2020, published 2023)
